Test results reported in patent EP3281644A1, “STABLE FLUORESCENT NANOVESICLES, METHOD FOR OBTAINING THEM AND USES THEREOF” (Consejo Superior De Investigaciones Científicas, priority 2016, dated 2018).

Legend:
[1] = Photochemical decomposition quantum yield under continuous laser irradiation; type: physicochemical; conditions: free dye in EtOH; diode laser 660 nm
Method: Photostabilities of DiD in EtOH and of DiD-nanovesicles were analyzed by monitoring the evolution over time of absorbance of the samples under continuous laser irradiation. The data are shown in Table below and are also represented in Figure 8. Additional column in Table 1 for rows of DiD
The quantum yields of photoreaction were calculated following the method proposed by Belfield et al. "Photophysical and photochemical properties of 5,7-di-methoxycoumarin under one- and two-photon excitation". J. Phys. Org. Chem. 16, 69-78 (2003).
Sample photostability under continuous-wave excitation was determined by measuring the photochemical decomposition quantum yield. […]
Quantum yields of photochemical decomposition were measured in ethanol (for DID) and water (FI, NDB and all nanovesicle samples) using absorption and fluorescence methods, where the number of bleached molecules is determined by a kinetic decrease in absorbance or fluorescence intensity under the assumption that fluorescence and absorbance of the photoproducts are negligible in the spectral region of dye fluorescence and main absorption band. Fluorescence method was used to estimate the photostability of dilute samples (with maximum absorbance < 0.1), while photochemical decomposition quantum yields of concentrated solutions (with maximum absorbance ≈ 1) were determined by absorption method. […]

[2] = reference standard; in methanol; cited from earlier work

Molecule	Photodecomposition QY*10^-5 [1]	QY, Φ [2] [%]
CCCCCCCCCCCCCCCCCCN1C(=CC=CC=CC2=[N+](CCCCCCCCCCCCCCCCCC)c3ccccc3C2(C)C)C(C)(C)c2ccccc21.[O-][Cl+3]([O-])([O-])[O-] [DiD EtOH, 1,1'-dioctadecyl-3,3,3',3'-tetramethyl-indodicarbocyanine perchlorate]	<0,008 *10^-5	–
cresyl violet	–	56
